Laboratory results: the NIST ThermoML archive (doi:10.1021/je060032n)
± gives the expanded uncertainty stated by the source.

Assay: refractive index (Na D-line) (dimensionless); xn = mol fraction of the nth substance listed
Conditions: 101 kPa, Liquid, Standard Abbe refractometry

NCCNCCO [N-(2-aminoethyl)ethanolamine] + O
refractive index
Conditions	298.15 K	303.15 K	313.15 K	323.15 K	333.15 K
x1 = 0.05	1.37012 ± 0.00044	1.36931 ± 0.00045	1.36749 ± 0.00046	1.36542 ± 0.00046	1.36367 ± 0.00052
x1 = 0.07	1.38204 ± 0.00039	1.3811 ± 0.00043	1.37909 ± 0.00043	1.37696 ± 0.00043	1.37507 ± 0.00045
x1 = 0.1	1.39796 ± 0.00044	1.39682 ± 0.00039	1.39453 ± 0.00042	1.39214 ± 0.00042	1.38992 ± 0.00057
x1 = 0.2	1.43314 ± 0.00085	1.4318 ± 0.00037	1.4289 ± 0.00045	1.42583 ± 0.00046	1.42264 ± 0.00087
x1 = 0.3	1.45253 ± 0.00041	1.45087 ± 0.00042	1.44762 ± 0.00047	1.44425 ± 0.00047	1.44087 ± 0.00069
x1 = 0.4	1.46321 ± 0.00034	1.46158 ± 0.00045	1.45811 ± 0.00048	1.45463 ± 0.00048	1.45107 ± 0.00058
x1 = 0.5	1.4703 ± 0.00038	1.46857 ± 0.00047	1.46502 ± 0.00049	1.46146 ± 0.00049	1.45777 ± 0.00055
x1 = 0.5996	1.47498 ± 0.00043	1.47321 ± 0.00049	1.46961 ± 0.00049	1.46604 ± 0.0005	1.46223 ± 0.00054
x1 = 0.7011	1.47851 ± 0.00046	1.47671 ± 0.00049	1.47308 ± 0.0005	1.46938 ± 0.00051	1.4656 ± 0.00053
x1 = 0.8002	1.48101 ± 0.00048	1.47918 ± 0.0005	1.47552 ± 0.00051	1.47177 ± 0.00051	1.46805 ± 0.00053
x1 = 0.8979	1.48289 ± 0.0005	1.48103 ± 0.00051	1.47734 ± 0.00052	1.47359 ± 0.00052	1.46977 ± 0.00053
x1 = 1	1.48454 ± 0.00052	1.48269 ± 0.00053	1.47884 ± 0.00053	1.47516 ± 0.00053	1.47128 ± 0.00054
